Measured values reported in patent EP0201999A1 (priority 1985, dated 1986).
Marks after values point to notes of the source that are not given here.

Tests used:
Assay type in all cases: in vivo
CERCOSPORA ARACHIDICOLA = assay: Foliar fungal disease test on plants (Example 29), Cercospora arachidicola on peanuts; conditions: 100 ppm a.i. foliar spray plus root drench approx. 40 ppm ai./dry soil, mostly protectant, applied 1-2 days before inoculation
Procedure: (§1) The compounds were tested against a variety of mainly foliar fungal diseases of plants. The techniques employed were as follows.
(§2) For all tests the plants were grown in John Innes Potting Compost (No. 1 or 2) in 4 cm diameter minipots. The test compounds were formulated either by bead milling with aqueous Dispersol T or as a solution in acetone or acetone/ethanol which was diluted to the required concentration immediately before use. The solutions or suspensions (100 ppm ia.) were sprayed on the foliage and applied to the roots of the plant via the soil. The sprays were applied to maximum retention and the root drenches to a final concentration equivalent to approximately 40 ppm ai./dry soil. "TWEEN" 20, to give a final concentration of 0.05%, was added when the sprays were applied to cereals. (a.i. means "active ingredient"). The word "TWEEN" is a Trade Mark.
(§3) Most were protectant tests where the compound was applied to the soil and roots and to the foliage one or two days before the plant was inoculated with the pathogen. The foliar pathogens were applied by spraying as spore suspensions onto the leaves of the test plants.
(§4) After inoculation, the plants were placed in an appropriate environment to allow infection to proceed and then incubated until the disease was ready for assessment. The period between inoculation and assessment varied from four to fourteen days according to the disease and the environment.
(§5) Disease control was recorded using the following grading system : • 4 = no disease • 3 = trace to 5% of disease on untreated plants • 2 = 6-25% of disease on untreated plants • 1 = 26-59% of disease on untreated plants • 0 = 60-100% of disease on untreated plants

P[…] = conditions: 100 ppm a.i. foliar spray plus root drench approx. 40 ppm ai./dry soil, mostly protectant, applied 1-2 days before inoculation
VENTURIA INAEQUALIS = assay: Foliar fungal disease test on plants (Example 29), Venturia inaequalis on apples; conditions: 100 ppm a.i. foliar spray plus root drench approx. 40 ppm ai./dry soil, mostly protectant, applied 1-2 days before inoculation
Procedure: as §1, §2, §3, §4, §5

[1] = system: Phytophthora infestans lycopersicii; conditions: tomato plants (variety Outdoor Girl); 100 ppm ai.; inoculated after 1 day; 24 hours humidity cabinet, assessed after a further 2 days
[…] [2] = Foliar fungal disease test on plants (Example 29), […] on vines; conditions: 100 ppm a.i. foliar spray plus root drench approx. 40 ppm ai./dry soil, mostly protectant, applied 1-2 days before inoculation
Procedure: as §1, §2, §3, §4, §5

PUCCINIA RECONDITA = assay: Foliar fungal disease test on plants (Example 29), Puccinia recondita on wheat; conditions: 100 ppm a.i. foliar spray plus root drench approx. 40 ppm ai./dry soil, mostly protectant, applied 1-2 days before inoculation
Procedure: as §1, §2, §3, §4, §5

[…] [3] = Root drench test against Plasmopara viticola on vines (Example 30); conditions: vines (variety ohanez), 25 ppm, approx. 10 ppm compound/dry soil, inoculated after 2 days, assessed six days later
Procedure: This Example illustrates the activity of the invention compounds against the disease Plasmopara viticola on vines.
For the test on Plasmopara viticola the vine plants (variety ohanez) were grown in John Innes Potting Compost (No. 1 or 2) in 4 cm diameter minipots. The test compounds were formulated either by bead milling with aqueous Dispersol T or as a solution in acetone or acetone/ ethanol which was diluted to a concentration of 25 ppm of the compound immediately before use. The solutions or suspensions were applied as a root drench to a final concentration equivalent to approximately 10 ppm compound/dry soil. After 2 days the plants were inoculated with the pathogen, and then placed in a humidity cabinet to allow infection to proceed, and the assessment carried out six days later.
The disease grading system was as for Example 29.

[…] [4] = as above; conditions: vines (variety ohanez), test concentration 30 ppm (marked *), inoculated after 2 days, assessed six days later

CON=C(C#N)C(=O)NCC(N)=S [Compound 54, 2-cyano-2-methoxyimino-N-(thio-carbamoylmethyl)-acetamide]
Disease control CERCOSPORA ARACHIDICOLA (PEANUTS) (CERCOSPORA ARACHIDICOLA): 3 (3 = trace to 5% of disease on untreated plants) | Disease control P[…] (RICE) (P[…]): 0 (0 = 60-100% of disease on untreated plants) | Disease control VENTURIA INAEQUALIS (APPLES) (VENTURIA INAEQUALIS): 0 (0 = 60-100% of disease on untreated plants) | Disease control Phytophthora infestans (tomatoes) [1]: 3 (3 = trace to 5% of disease on untreated plants) | Disease control […] (VINES) ([…] [2]): 4 | Disease control PUCCINIA RECONDITA (WHEAT) (PUCCINIA RECONDITA): 3 (3 = trace to 5% of disease on untreated plants) | Disease control […] (VINES) ([…] [3]): 4

C#CCN(CC=C)C(=O)C(C#N)=NOC [Compound 10, 2-cyano-2-methoxyimino-N-(propargyl)-N-allylacetamide]
Disease control CERCOSPORA ARACHIDICOLA (PEANUTS) (CERCOSPORA ARACHIDICOLA): 2 (2 = 6-25% of disease on untreated plants) | Disease control P[…] (RICE) (P[…]): 0 (0 = 60-100% of disease on untreated plants) | Disease control VENTURIA INAEQUALIS (APPLES) (VENTURIA INAEQUALIS): 0 (0 = 60-100% of disease on untreated plants) | Disease control […] (VINES) ([…] [2]): 3 (3 = trace to 5% of disease on untreated plants) | Disease control PUCCINIA RECONDITA (WHEAT) (PUCCINIA RECONDITA): 0 (0 = 60-100% of disease on untreated plants) | Disease control […] (VINES) ([…] [3]): 2 (2 = 6-25% of disease on untreated plants)

C#CCNC(=O)C(C#N)=NOC [Compound 1, 2-cyano-2-methoxyimino-N-propargylacetamide]
Disease control CERCOSPORA ARACHIDICOLA (PEANUTS) (CERCOSPORA ARACHIDICOLA): 2 (2 = 6-25% of disease on untreated plants) | Disease control P[…] (RICE) (P[…]): 3 (3 = trace to 5% of disease on untreated plants) | Disease control VENTURIA INAEQUALIS (APPLES) (VENTURIA INAEQUALIS): 2 (2 = 6-25% of disease on untreated plants) | Disease control […] (VINES) ([…] [2]): 4 | Disease control PUCCINIA RECONDITA (WHEAT) (PUCCINIA RECONDITA): 4 | Disease control […] (VINES) ([…] [3]): 4

CCON=C(C#N)C(=O)NCC#N [Compound 22, 2-cyano-2-ethoxyimino-N-(cyanomethyl)-acetamide]
Disease control CERCOSPORA ARACHIDICOLA (PEANUTS) (CERCOSPORA ARACHIDICOLA): 3 (3 = trace to 5% of disease on untreated plants) | Disease control P[…] (RICE) (P[…]): 3 (3 = trace to 5% of disease on untreated plants) | Disease control VENTURIA INAEQUALIS (APPLES) (VENTURIA INAEQUALIS): 4 | Disease control […] (VINES) ([…] [2]): 4 | Disease control PUCCINIA RECONDITA (WHEAT) (PUCCINIA RECONDITA): 3 (3 = trace to 5% of disease on untreated plants) | Disease control […] (VINES) ([…] [3]): 4

CON=C(C#N)C(=O)NC(C#N)c1ccco1 (stereo not drawn) [Compound 63, 2-cyano-2-methoxyimino-N-[(2-furyl)-α-cyano-methyl]-acetamide]
Disease control CERCOSPORA ARACHIDICOLA (PEANUTS) (CERCOSPORA ARACHIDICOLA): 0 (0 = 60-100% of disease on untreated plants) | Disease control P[…] (RICE) (P[…]): 0 (0 = 60-100% of disease on untreated plants) | Disease control VENTURIA INAEQUALIS (APPLES) (VENTURIA INAEQUALIS): 0 (0 = 60-100% of disease on untreated plants) | Disease control […] (VINES) ([…] [2]): 4 | Disease control PUCCINIA RECONDITA (WHEAT) (PUCCINIA RECONDITA): 2 (2 = 6-25% of disease on untreated plants) | Disease control […] (VINES) ([…] [3]): 4

C#CCN(CC#C)C(=O)C(C#N)=NOC [Compound 9, 2-cyano-2-methoxyimino-N,N-dipropargyl-acetamide]
Disease control CERCOSPORA ARACHIDICOLA (PEANUTS) (CERCOSPORA ARACHIDICOLA): 0 (0 = 60-100% of disease on untreated plants) | Disease control P[…] (RICE) (P[…]): 2 (2 = 6-25% of disease on untreated plants) | Disease control VENTURIA INAEQUALIS (APPLES) (VENTURIA INAEQUALIS): 0 (0 = 60-100% of disease on untreated plants) | Disease control […] (VINES) ([…] [2]): 4 | Disease control […] (VINES) ([…] [4]): 3* (3 = trace to 5% of disease on untreated plants) | Disease control PUCCINIA RECONDITA (WHEAT) (PUCCINIA RECONDITA): 2 (2 = 6-25% of disease on untreated plants)

CON=C(C#N)C(=O)NCC(=O)OC [Compound 24, methoxycarbonylmethyl-(2-cyano-2-methoxyimino)-acetamide]
Disease control CERCOSPORA ARACHIDICOLA (PEANUTS) (CERCOSPORA ARACHIDICOLA): 2 (2 = 6-25% of disease on untreated plants) | Disease control P[…] (RICE) (P[…]): 0 (0 = 60-100% of disease on untreated plants) | Disease control VENTURIA INAEQUALIS (APPLES) (VENTURIA INAEQUALIS): 0 (0 = 60-100% of disease on untreated plants) | Disease control […] (VINES) ([…] [2]): 4 | Disease control PUCCINIA RECONDITA (WHEAT) (PUCCINIA RECONDITA): 1 (1 = 26-59% of disease on untreated plants) | Disease control […] (VINES) ([…] [3]): 0 (0 = 60-100% of disease on untreated plants)

CON=C(C#N)C(=O)NC(C)C#N (stereo not drawn) [Compound 34, 2-cyano-2-methoxyimino-N-(α-cyanoethyl)-acetamide]
Disease control CERCOSPORA ARACHIDICOLA (PEANUTS) (CERCOSPORA ARACHIDICOLA): 0 (0 = 60-100% of disease on untreated plants) | Disease control P[…] (RICE) (P[…]): 0 (0 = 60-100% of disease on untreated plants) | Disease control VENTURIA INAEQUALIS (APPLES) (VENTURIA INAEQUALIS): 0 (0 = 60-100% of disease on untreated plants) | Disease control Phytophthora infestans (tomatoes) [1]: 3 (3 = trace to 5% of disease on untreated plants) | Disease control […] (VINES) ([…] [2]): 4 | Disease control PUCCINIA RECONDITA (WHEAT) (PUCCINIA RECONDITA): 4 | Disease control […] (VINES) ([…] [3]): 4

CON=C(C#N)C(=O)NCC(I)=CI [Compound 7, 2-cyano-2-methoxyimino-N-2,3-diiodo-allylacetamide]
Disease control CERCOSPORA ARACHIDICOLA (PEANUTS) (CERCOSPORA ARACHIDICOLA): 0 (0 = 60-100% of disease on untreated plants) | Disease control P[…] (RICE) (P[…]): 2 (2 = 6-25% of disease on untreated plants) | Disease control VENTURIA INAEQUALIS (APPLES) (VENTURIA INAEQUALIS): 0 (0 = 60-100% of disease on untreated plants) | Disease control […] (VINES) ([…] [2]): 4 | Disease control […] (VINES) ([…] [4]): 2* (2 = 6-25% of disease on untreated plants) | Disease control PUCCINIA RECONDITA (WHEAT) (PUCCINIA RECONDITA): 0 (0 = 60-100% of disease on untreated plants)

N#CCNC(=O)C(C#N)=NO [Compound 31, 2-cyano-2-oximino-N-(cyanomethyl)-acetamide]
Disease control CERCOSPORA ARACHIDICOLA (PEANUTS) (CERCOSPORA ARACHIDICOLA): 0 (0 = 60-100% of disease on untreated plants) | Disease control P[…] (RICE) (P[…]): 2 (2 = 6-25% of disease on untreated plants) | Disease control VENTURIA INAEQUALIS (APPLES) (VENTURIA INAEQUALIS): 0 (0 = 60-100% of disease on untreated plants) | Disease control […] (VINES) ([…] [2]): 0 (0 = 60-100% of disease on untreated plants) | Disease control PUCCINIA RECONDITA (WHEAT) (PUCCINIA RECONDITA): 0 (0 = 60-100% of disease on untreated plants)

CON=C(C#N)C(=O)Nc1nccs1 [Compound 25, 2-cyano-2-methoxyimino-N-2-thiazolylacetamide]
Disease control CERCOSPORA ARACHIDICOLA (PEANUTS) (CERCOSPORA ARACHIDICOLA): 0 (0 = 60-100% of disease on untreated plants) | Disease control P[…] (RICE) (P[…]): 0 (0 = 60-100% of disease on untreated plants) | Disease control VENTURIA INAEQUALIS (APPLES) (VENTURIA INAEQUALIS): 2 (2 = 6-25% of disease on untreated plants) | Disease control Phytophthora infestans (tomatoes) [1]: 2 (2 = 6-25% of disease on untreated plants) | Disease control […] (VINES) ([…] [2]): 4 | Disease control PUCCINIA RECONDITA (WHEAT) (PUCCINIA RECONDITA): 3 (3 = trace to 5% of disease on untreated plants) | Disease control […] (VINES) ([…] [3]): 0 (0 = 60-100% of disease on untreated plants)

CON=C(C#N)C(=O)NCC#N [Compound 20, 2-cyano-2-methoxyimino-N-(cyanomethyl)-acetamide]
Disease control CERCOSPORA ARACHIDICOLA (PEANUTS) (CERCOSPORA ARACHIDICOLA): 2 (2 = 6-25% of disease on untreated plants) | Disease control P[…] (RICE) (P[…]): 1 (1 = 26-59% of disease on untreated plants) | Disease control VENTURIA INAEQUALIS (APPLES) (VENTURIA INAEQUALIS): 3 (3 = trace to 5% of disease on untreated plants) | Disease control Phytophthora infestans (tomatoes) [1]: 2 (2 = 6-25% of disease on untreated plants) | Disease control […] (VINES) ([…] [2]): 4 | Disease control PUCCINIA RECONDITA (WHEAT) (PUCCINIA RECONDITA): 3 (3 = trace to 5% of disease on untreated plants) | Disease control […] (VINES) ([…] [3]): 4
